The term inhibition denotes how much of the control response was suppressed.

Experiment [1] addresses FABP5 (Homo sapiens, UniProt Q01469). Briefly: FABP5 inhibition rate, ANS substrate competition method (illustrated by the FABP4 system). The class given is binding. The note with it: compound 25 μM.
Experiment [2] has as its target T1, Human FABP4 (Homo sapiens, UniProt P15090).
T1 construct: His tag; made in house; host or cells: E. coli BL21 (DE3)
The experiment can be described thus: FABP4 inhibition rate, ANS substrate competition (fluorescence) method. The class given is binding. The note with it: compound 25 μM; 10 μM 1,8-ANS, 10 μM FABP4. The source says:
(§1) Considering that inhibition of FABP3 would cause myocardial function damage and bring potential safety issues, we tested the inhibitory activity of some compounds on FABP3. The activity test is illustrated by the example of the FABP4 activity test system as below.
(§2) Experimental principle and method: Once the free non-covalent fluorescent probe ANS binds to FABP4, the ANS fluorescence intensity will increase and its spectrum will be blue shifted. In this experiment, the inhibitory effect of the compound on FABP4 was evaluated by measuring the change in the ANS fluorescence signal value. For the FABP4 inhibitory activity test, the ANS substrate competition method was used, and we used the method of Kane and Bernlohr (E. Marr, M. Tardie, M. Carty, T. Brown Phillips, I. K. Wang, W. Soeller, X. Qiu, G. Karam, Expression, purification, crystallization and structure of human adipocyte lipid-binding protein (aP2). Acta Crystallogr., Sect. F: Struct. Biol. Cryst. Commun. 62 (2006) 1058-1060.). Human FABP4 with a His tag was expressed in the BL21 (DE3) strain and then purified using a Ni column with a His tag to generate the protein. In the detection system, the concentration of 1,8-ANS substrate was 10 μM, the final concentration of FABP4 was 10 μM, and then the compound prepared by the present invention was added at the required concentration for incubation for 3 minutes, and finally the fluorescence signal was detected at an excitation wavelength (EX) of 370 nm/emission wavelength (EM) of 470 nm. The inhibition rate (%) of the test sample on FABP4 was calculated according to the fluorescence absorption value of the system. The inhibition rate (%) was calculated according to the following equation: […]
(§3) FX represents the fluorescence value (fluorescence, F) of the system measured in the presence of compound x;
(§4) Fbackground represents the fluorescence value of the fluorescent substrate ANS;
(§5) F0% represents the fluorescence value of the system when the inhibition rate is 0%, that is, when no compound was added.

Experiment [3] addresses FABP3 (Homo sapiens, UniProt P05413). The experiment can be described thus: FABP3 inhibition rate, ANS substrate competition method (illustrated by the FABP4 system). It counts as binding. The note with it: compound 25 μM.
From the text: as §1, §2, §3, §4, §5

Experiment [4] relates to IL-6 secretion in THP-1 cells. The experiment can be described thus: IL-6 secretion in LPS-stimulated THP-1 monocyte-derived macrophages (ELISA). The class given is cell-based. The note with it: FIG. 3. The source says: In FIG. 3, the vertical axis represents the amount (ng) of MCP-1 contained in each mg of cell protein. Wherein, Control (Con) represents blank control treatment, LPS represents lipopolysaccharide treatment, BMS309403 represents inhibitor positive control treatment, RO6806051 (RO) represents lead compound treatment, and Y2, Y3, Y15, Y16 and Y18 represent treatments with compounds Y2, Y3, Y15, Y16 and Y18 prepared in the present invention, respectively.
(§6) Effects of the compounds on monocyte chemoattractant factor-1 (MCP-1) and interleukin-6 (IL-6) in THP-1 monocyte-derived macrophage.
(§7) First, monocytic cell line THP-1 in logarithmic growth phase was plated on a 96-well plate at a cell density of 5*10^5/ml; then 100 nM phorbol myristate ester (PMA) was added to induce the cells for 24 hours to differentiate into macrophages; then the cells were washed once or twice with phosphate buffered saline (PBS), and different concentrations of compounds (5, 10, 25 μM) were added for incubation for 18 hours; finally, after 6 hours of stimulation with 100 ng/ml lipopolysaccharide (LPS), the supernatant was collected and diluted to a certain multiple and the contents of MCP-1 and IL-6 were detected using enzyme-linked immunosorbent assay (ELISA), and cell protein was collected and the protein concentration was measured by BCA method for calibration.
For orientation: ELISA stands for enzyme-linked immunosorbent assay.

Experiment [5] has as its system MCP-1 secretion in THP-1 cells. Briefly: MCP-1 secretion in LPS-stimulated THP-1 monocyte-derived macrophages (ELISA). The class given is cell-based. The note with it: 25 μM, 10 μM and 5 μM; 18 h incubation, 100 ng/ml LPS 6 h; FIG. 2.
From the text: In FIG. 2A to FIG. 2C, the vertical axis represents the amount (ng) of MCP-1 contained in each mg of cell protein: in FIG. 2D, the vertical axis represents the relative concentration of MCP-1 (ng/mg cellular protein % LPS). Wherein, Control represents blank control treatment, LPS represents lipopolysaccharide treatment, BMS309403 represents inhibitor positive control treatment, RO6806051 (RO) represents lead compound treatment, and Y2, Y3, Y15, Y16 and Y18 represent treatments with compounds Y2, Y3, Y15, Y16 and Y18 prepared in the present invention, respectively.
as §6, §7

Chain of FABP3 (P05413 whole entry): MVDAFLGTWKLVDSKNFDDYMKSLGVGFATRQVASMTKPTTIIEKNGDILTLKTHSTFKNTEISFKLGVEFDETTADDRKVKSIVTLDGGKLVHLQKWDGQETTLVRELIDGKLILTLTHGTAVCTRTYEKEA
Chain of FABP5 (Q01469 whole entry): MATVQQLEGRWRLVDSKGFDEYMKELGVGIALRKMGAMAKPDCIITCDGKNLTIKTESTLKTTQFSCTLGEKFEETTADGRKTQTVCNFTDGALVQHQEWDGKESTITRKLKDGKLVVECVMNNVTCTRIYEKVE
T1 sequence (P15090 whole entry): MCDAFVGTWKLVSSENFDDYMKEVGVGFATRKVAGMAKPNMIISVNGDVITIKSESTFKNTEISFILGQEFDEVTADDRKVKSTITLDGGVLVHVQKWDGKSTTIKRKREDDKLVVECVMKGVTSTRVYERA

As to `O=C(O)c1c(-c2ccccc2)c2cc(Cl)ccc2c(=O)n1C1CCCCC1` [Compound Y1, 6-Chloro-2-cyclohexyl-1-oxo-4-phenyl-1,2-dihydroisoquinoline-3-carboxylic Acid], the inhibition at 25 µM is 50% in experiment [1], 70% in experiment [2] and 29% in experiment [3].

As for `O=C(O)c1c(-c2ccccc2)c2cc(Cl)ccc2c(=O)n1C1CCOCC1` [Compound Y4, 6-Chloro-1-oxo-4-phenyl-2-(tetrahydro-2H-pyran-4-yl)-1,2-dihydroisoquinoline-3-carboxylic Acid], the values for the inhibition at 25 µM in experiment [1], in experiment [2] and in experiment [3] were 50%, 71% and 14%, respectively.

As to `O=C(O)c1c(-c2ccccc2)c2cc(Cl)ccc2c(=O)n1C1CC1` [Compound Y5, 6-Chloro-2-cyclopropyl-1-oxo-4-phenyl-1,2-dihydroisoquinoline-3-carboxylic Acid], the inhibition at 25 µM in experiment [1] was determined as 43%; in experiment [2] it was 88%; in experiment [3] it was 82%.

Turning to `O=C(O)c1c(-c2ccccc2)c2cc(Cl)ccc2c(=O)n1C1CCC1` [Compound Y6, 6-Chloro-2-cyclobutyl-1-oxo-4-phenyl-1,2-dihydroisoquinoline-3-carboxylic Acid], the values for the inhibition at 25 µM in experiment [1], in experiment [2] and in experiment [3] were 60%, 94% and 81%, respectively.

As to `O=C(O)c1c(-c2ccccc2)c2cc(Cl)ccc2c(=O)n1C1CCCCCC1` [Compound Y7, 6-Chloro-2-cycloheptyl-1-oxo-4-phenyl-1,2-dihydroisoquinoline-3-carboxylic Acid], the inhibition at 25 µM was found to be 57% in experiment [1], 78% in experiment [2] and 18% in experiment [3].

For the compound `O=C(O)c1c(-c2ccccc2)c2cc(Cl)ccc2c(=O)n1-c1ccc(Cl)cc1` [Compound Y8, 6-Chloro-2-(4-chlorophenyl)-1-oxo-4-phenyl-1,2-dihydroisoquinoline-3-carboxylic Acid], the inhibition at 25 µM in experiment [1] amounted to 1%; in experiment [2], 35%.

Consider `O=C(O)c1c(-c2ccccc2)c2cc(Cl)ccc2c(=O)n1N1CCCCC1` [Compound Y9, 6-Chloro-1-oxo-4-phenyl-2-(piperidin-1-yl)-1,2-dihydroisoquinoline-3-carboxylic Acid], for which the inhibition at 25 µM in experiment [1] was found to be 72%; in experiment [2] it was 95%; in experiment [3], 59%.

For `O=C(O)c1c(-c2ccccc2)c2cc(Br)ccc2c(=O)n1C1CCCC1` [Compound Y10, 6-Bromo-2-cyclopentyl-1-oxo-4-phenyl-1,2-dihydroisoquinoline-3-carboxylic Acid], the inhibition at 25 µM in experiment [1] is 58%; in experiment [2], 95%; in experiment [3] it was 57%.

With `O=C(O)c1c(-c2ccccc2)c2cc(Cl)c(Cl)cc2c(=O)n1C1CCCC1` [Compound Y11, 6,7-Dichloro-2-cyclopentyl-1-oxo-4-phenyl-1,2-dihydroisoquinoline-3-carboxylic Acid], the inhibition at 25 µM in experiment [1] amounted to 41%; in experiment [2], 77%; in experiment [3], 48%.

Consider `O=C(O)c1c(-c2ccccc2)c2ccccc2c(=O)n1C1CCCC1` [Compound Y12, 2-Cyclopentyl-1-oxo-4-phenyl-1,2-dihydroisoquinoline-3-carboxylic Acid], for which the inhibition at 25 µM in experiment [1] stood at 25%; in experiment [2] it was 58%.

`O=C(O)c1c(-c2ccccc2)c2cc(F)ccc2c(=O)n1C1CCCC1` [Compound Y13, 2-Cyclopentyl-6-fluoro-1-oxo-4-phenyl-1,2-dihydroisoquinoline-3-carboxylic Acid]: the inhibition at 25 µM in experiment [1] worked out at 43%; in experiment [2], 89%; in experiment [3], 11%.

With `Cc1ccc2c(=O)n(C3CCCC3)c(C(=O)O)c(-c3ccccc3)c2c1` [Compound Y14, 2-Cyclopentyl-6-methyl-1-oxo-4-phenyl-1,2-dihydroisoquinoline-3-carboxylic Acid], the values for the inhibition at 25 µM in experiment [1], in experiment [2] and in experiment [3] were 55%, 90% and 26%, respectively.

For `O=C(O)c1c(-c2ccc(F)cc2)c2cc(Cl)ccc2c(=O)n1C1CCCC1` [Compound Y15, 6-Chloro-2-cyclopentyl-4-(4-fluorophenyl)-1-oxo-1,2-dihydroisoquinoline-3-carboxylic Acid], the inhibition at 25 µM amounted to 52% in experiment [1], 91% in experiment [2] and 27% in experiment [3]. For the same compound, in experiment [4], the “IL-6 secretion, tendency (no concentration stated)” value is “tendency to reduce IL-6 secretion but with no statistical difference”. For the same compound, in experiment [5], the “secretion of inflammatory factor MCP-1 in THP-1 mononuclear macrophages” value is recorded as “could reduce the secretion of inflammatory factor MCP-1”.

Take `O=C(O)c1c(-c2ccc(O)cc2)c2cc(Cl)ccc2c(=O)n1C1CCCC1` [Compound Y16, 6-Chloro-2-cyclopentyl-4-(4-hydroxyphenyl)-1-oxo-1,2-dihydroisoquinoline-3-carboxylic Acid]: the inhibition at 25 µM was found to be 52% in experiment [1], 92% in experiment [2] and 28% in experiment [3]. Further, the “secretion of inflammatory factor MCP-1 in THP-1 mononuclear macrophages” value in experiment [5] is listed as “could reduce the secretion of inflammatory factor MCP-1”.

In the case of `O=C(O)c1c(-c2ccc(CO)cc2)c2cc(Cl)ccc2c(=O)n1C1CCCC1` [Compound Y17, 6-Chloro-2-cyclopentyl-4-(4-(hydroxymethyl)phenyl)-1-oxo-1,2-dihydroisoquinoline-3-carboxylic Acid], the values for the inhibition at 25 µM in experiment [1] and in experiment [2] were 14% and 1%, respectively.

As for `O=C(O)c1c(-c2ccc(C(F)(F)F)cc2)c2cc(Cl)ccc2c(=O)n1C1CCCC1` [Compound Y19, 6-Chloro-2-cyclopentyl-1-oxo-4-(4-(trifluoromethyl)phenyl)-1,2-dihydroisoquinoline-3-carboxylic Acid], the inhibition at 25 µM in experiment [1] stood at 22%; in experiment [2], 14%; in experiment [3], 3%.

`O=C(O)c1c(-c2ccc3c(c2)CCO3)c2cc(Cl)ccc2c(=O)n1C1CCCC1` [Compound Y20, 6-Chloro-2-cyclopentyl-4-(2,3-dihydrobenzofuran-5-yl)-1-oxo-1,2-dihydroisoquinoline-3-carboxylic Acid]: the inhibition at 25 µM stood at 25% in experiment [1] and 32% in experiment [2].

For `O=C(O)c1c(-c2cccnc2)c2cc(Cl)ccc2c(=O)n1C1CCCC1` [Compound Y21, 6-Chloro-2-cyclopentyl-1-oxo-4-(pyridin-3-yl)-1,2-dihydroisoquinoline-3-carboxylic Acid], the inhibition at 25 µM turned out to be 31% in experiment [1], 76% in experiment [2] and 9% in experiment [3].

Turning to `Cc1nn(C)cc1-c1c(C(=O)O)n(C2CCCC2)c(=O)c2ccc(Cl)cc12` [Compound Y22, 6-Chloro-2-cyclopentyl-4-(1,3-dimethyl-1H-pyrazol-4-yl)-1-oxo-1,2-dihydroisoquinoline-3-carboxylic Acid], the inhibition at 25 µM in experiment [1] is 36%; in experiment [2], 36%; in experiment [3], 1%.

The values are drawn from patent publication US20250170121A1, “ISOQUINOLINONE COMPOUND, AND PREPARATION METHOD AND USE THEREFOR” (FUDAN UNIVERSITY, priority 2022, published 2025).
